# Source: PubChem BioAssay AID1918946 (Molecular Pharmacology Branch, DTP, NCI, 2023)
# System: 885512-296-R-J2-PDC complex spheroid viability
# Test: Anticancer human tumor 885512-296-R-J2-PDC patient-derived breast carcinoma cell line growth inhibition
# Conditions: for IC50: curve of first compound; for viability, T/C: stronger effect = lower value
# Procedure, shortened: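 Multicellular complex spheroids of tumor cells with human endothelial cells (HUVEC) and mesenchymal stem cells; the LSD1 inhibitor iadademstat was combined with standard-of-care or investigational agents. Top concentration at or near clinical Cmax, half-log dilutions; final DMSO ≤0.25%.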
# [1] = second compound 0.1 µM, first compound 0.00949 µM
# [2] = second compound 0.1 µM, first compound 0.03 µM
# [3] = second compound 0.1 µM, first compound 0.0949 µM
# [4] = second compound 0.1 µM, first compound 0.3 µM
# [5] = second compound 0.316 µM, first compound 0.00949 µM
# [6] = second compound 0.316 µM, first compound 0.03 µM
# [7] = second compound 0.316 µM, first compound 0.0949 µM
# [8] = second compound 0.316 µM, first compound 0.3 µM
# [9] = second compound 1 µM, first compound 0.00949 µM
# [10] = second compound 1 µM, first compound 0.03 µM
# [11] = second compound 1 µM, first compound 0.0949 µM
# [12] = second compound 1 µM, first compound 0.3 µM
# [13] = second compound 3.16 µM, first compound 0.00949 µM
# [14] = second compound 3.16 µM, first compound 0.03 µM
# [15] = second compound 3.16 µM, first compound 0.0949 µM
# [16] = second compound 3.16 µM, first compound 0.3 µM
# [17] = second compound 10 µM, first compound 0.00949 µM
# [18] = second compound 10 µM, first compound 0.03 µM
# [19] = second compound 10 µM, first compound 0.0949 µM
# [20] = second compound 10 µM, first compound 0.3 µM
# 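Further: spheroids exposed to agents for 7 days before viability read.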
structure (smiles),measurement,setting,value
CCc1c2c(nc3ccc(O)cc13)-c1cc3c(c(=O)n1C2)COC(=O)[C@]3(O)CC + NC1CC1c1ccc(-c2cccc(O)c2)cc1,IC50,second compound 0.1 µM,< 0.949 nM
same,IC50,second compound 0.316 µM,< 0.949 nM
same,IC50,second compound 1 µM,< 0.949 nM
same,IC50,second compound 3.16 µM,< 0.949 nM
same,IC50,second compound 10 µM,< 0.949 nM
same,"viability, T/C","second compound 0.1 µM, first compound 0.000949 µM",1.84%
same,"viability, T/C","second compound 0.1 µM, first compound 0.003 µM",1.73%
same,"viability, T/C",[1],1.08%
same,"viability, T/C",[2],1.22%
same,"viability, T/C",[3],1.37%
same,"viability, T/C",[4],1.16%
same,"viability, T/C","second compound 0.316 µM, first compound 0.000949 µM",2.42%
same,"viability, T/C","second compound 0.316 µM, first compound 0.003 µM",1.57%
same,"viability, T/C",[5],1.3%
same,"viability, T/C",[6],1.37%
same,"viability, T/C",[7],1.16%
same,"viability, T/C",[8],1.05%
same,"viability, T/C","second compound 1 µM, first compound 0.000949 µM",1.79%
same,"viability, T/C","second compound 1 µM, first compound 0.003 µM",1.95%
same,"viability, T/C",[9],1.46%
same,"viability, T/C",[10],1.26%
same,"viability, T/C",[11],1.14%
same,"viability, T/C",[12],1.13%
same,"viability, T/C","second compound 3.16 µM, first compound 0.000949 µM",2.13%
same,"viability, T/C","second compound 3.16 µM, first compound 0.003 µM",1.76%
same,"viability, T/C",[13],1.07%
same,"viability, T/C",[14],1.01%
same,"viability, T/C",[15],0.8%
same,"viability, T/C",[16],0.78%
same,"viability, T/C","second compound 10 µM, first compound 0.000949 µM",2.37%
same,"viability, T/C","second compound 10 µM, first compound 0.003 µM",2.17%
same,"viability, T/C",[17],1.55%
same,"viability, T/C",[18],0.87%
same,"viability, T/C",[19],0.91%
same,"viability, T/C",[20],0.8%
Nc1ccccc1NC(=O)c1ccc(CNC(=O)OCc2cccnc2)cc1 + NC1CC1c1ccc(-c2cccc(O)c2)cc1,IC50,second compound 0.1 µM,48.2 nM
same,IC50,second compound 0.316 µM,50.4 nM
same,IC50,second compound 1 µM,41.9 nM
same,IC50,second compound 3.16 µM,43.1 nM
same,IC50,second compound 10 µM,23.9 nM
same,"viability, T/C",[1],99.3%
same,"viability, T/C",[2],63.1%
same,"viability, T/C",[3],30.5%
same,"viability, T/C",[4],17.5%
same,"viability, T/C","second compound 0.1 µM, first compound 0.949 µM",6.69%
same,"viability, T/C","second compound 0.1 µM, first compound 3 µM",0.26%
same,"viability, T/C",[5],104%
same,"viability, T/C",[6],61.7%
same,"viability, T/C",[7],37.2%
same,"viability, T/C",[8],12.3%
same,"viability, T/C","second compound 0.316 µM, first compound 0.949 µM",5.8%
same,"viability, T/C","second compound 0.316 µM, first compound 3 µM",0.31%
same,"viability, T/C",[9],102%
same,"viability, T/C",[10],53.8%
same,"viability, T/C",[11],35.2%
same,"viability, T/C",[12],15%
same,"viability, T/C","second compound 1 µM, first compound 0.949 µM",5.26%
same,"viability, T/C","second compound 1 µM, first compound 3 µM",0.29%
same,"viability, T/C",[13],94.2%
same,"viability, T/C",[14],57.9%
same,"viability, T/C",[15],32.8%
same,"viability, T/C",[16],12.7%
same,"viability, T/C","second compound 3.16 µM, first compound 0.949 µM",5.2%
same,"viability, T/C","second compound 3.16 µM, first compound 3 µM",0.22%
same,"viability, T/C",[17],65.8%
same,"viability, T/C",[18],45.7%
same,"viability, T/C",[19],27.9%
same,"viability, T/C",[20],12.9%
same,"viability, T/C","second compound 10 µM, first compound 0.949 µM",4.05%
same,"viability, T/C","second compound 10 µM, first compound 3 µM",0.22%
O=C(c1cc(Cc2n[nH]c(=O)c3ccccc23)ccc1F)N1CCN(C(=O)C2CC2)CC1 + NC1CC1c1ccc(-c2cccc(O)c2)cc1,IC50,second compound 0.1 µM,945 nM
same,IC50,second compound 0.316 µM,896 nM
same,IC50,second compound 1 µM,805 nM
same,IC50,second compound 3.16 µM,660 nM
same,IC50,second compound 10 µM,361 nM
same,"viability, T/C","second compound 0.1 µM, first compound 0.0316 µM",116%
same,"viability, T/C","second compound 0.1 µM, first compound 0.1 µM",106%
same,"viability, T/C","second compound 0.1 µM, first compound 0.316 µM",90.9%
same,"viability, T/C","second compound 0.1 µM, first compound 1 µM",48.6%
same,"viability, T/C","second compound 0.1 µM, first compound 3.16 µM",13.1%
same,"viability, T/C","second compound 0.1 µM, first compound 10 µM",4.93%
same,"viability, T/C","second compound 0.316 µM, first compound 0.0316 µM",103%
same,"viability, T/C","second compound 0.316 µM, first compound 0.1 µM",114%
same,"viability, T/C","second compound 0.316 µM, first compound 0.316 µM",76.6%
same,"viability, T/C","second compound 0.316 µM, first compound 1 µM",51.7%
same,"viability, T/C","second compound 0.316 µM, first compound 3.16 µM",10.8%
same,"viability, T/C","second compound 0.316 µM, first compound 10 µM",5.15%
same,"viability, T/C","second compound 1 µM, first compound 0.0316 µM",96.9%
same,"viability, T/C","second compound 1 µM, first compound 0.1 µM",105%
same,"viability, T/C","second compound 1 µM, first compound 0.316 µM",88.7%
same,"viability, T/C","second compound 1 µM, first compound 1 µM",40.4%
same,"viability, T/C","second compound 1 µM, first compound 3.16 µM",13.3%
same,"viability, T/C","second compound 1 µM, first compound 10 µM",4.98%
same,"viability, T/C","second compound 3.16 µM, first compound 0.0316 µM",111%
same,"viability, T/C","second compound 3.16 µM, first compound 0.1 µM",80.8%
same,"viability, T/C","second compound 3.16 µM, first compound 0.316 µM",75.9%
same,"viability, T/C","second compound 3.16 µM, first compound 1 µM",41.1%
same,"viability, T/C","second compound 3.16 µM, first compound 3.16 µM",9.4%
same,"viability, T/C","second compound 3.16 µM, first compound 10 µM",4.81%
same,"viability, T/C","second compound 10 µM, first compound 0.0316 µM",80.1%
same,"viability, T/C","second compound 10 µM, first compound 0.1 µM",70%
same,"viability, T/C","second compound 10 µM, first compound 0.316 µM",55.1%
same,"viability, T/C","second compound 10 µM, first compound 1 µM",22.2%
same,"viability, T/C","second compound 10 µM, first compound 3.16 µM",6.21%
same,"viability, T/C","second compound 10 µM, first compound 10 µM",4.07%
